Measurements from the SangsterLogP compilation.

In the case of `COC(=O)c1c2ccccc2cc2ccccc12`, the logP is reported as 3.83. In the case of `Brc1ccc2ccc3c(Br)ccc4ccc1c2c43`, the logP is reported as 6.69. With `Brc1cc(Br)c2ccc3cccc4ccc1c2c43` the logP was 6.85. Work on `CC(=O)c1c2ccccc2cc2ccccc12` yielded a logP of 3.6. In the case of `Brc1ccc2ccc3cccc4ccc1c2c34`, the logP is reported as 5.81. `CC(=O)c1cc2ccc3cccc4ccc(c1)c2c34` gave a logP of 4.29. Compound `CC(=O)c1ccc2ccc3cccc4ccc1c2c34` has a logP of 4.18. Work on `COC(=O)c1cc2ccc3cccc4ccc(c1)c2c34` yielded a logP of 4.85. For `Brc1c2ccccc2cc2ccccc12`, the logP was 5.37. With `O=Cc1c2ccccc2cc2ccccc12` the logP was 3.77. With `CC(=O)c1cc2cccc3ccc4cccc1c4c32` the logP was 4.16. In the case of `COC(=O)c1ccc2ccc3cccc4ccc1c2c34`, the logP is reported as 4.73. With `Brc1cc2cccc3ccc4cccc1c4c32` the logP was 5.84. For `Brc1c2ccccc2c(Br)c2ccccc12`, the logP was 6.29. Compound `COc1c2ccccc2cc2ccccc12` has a logP of 4.36. With `Brc1cc2ccc3cccc4ccc(c1)c2c34` the logP was 5.8. `Brc1ccc2ccc3ccc(Br)c4ccc1c2c34` showed a logP of 6.73. For `O=C1c2ccccc2C(=O)c2ccccc21`, the logP was 3.28. Compound `NC(=O)c1c2ccccc2cc2ccccc12` has a logP of 2.23. Work on `N#Cc1c2ccccc2cc2ccccc12` yielded a logP of 3.98. `O=Cc1ccc2ccc3cccc4ccc1c2c34` gave a logP of 4.23. Compound `Clc1c2ccccc2cc2ccccc12` has a logP of 5.27.
